According to ChEMBL document CHEMBL1201862, “PubChem BioAssay data set” (2004):
Activity calls are given as the source filed them.

What was measured:
Major prion protein = Major prion protein (Homo sapiens, UniProt P04156); type: functional, cell-based
cells [1] = assay: cells
[2] = target: T1, Replicative DNA helicase DnaB (Mycobacterium tuberculosis, UniProt P9WMR3); assay: DnaB intein splicing inhibitors, dose response, biochemical, cell-free fluorescence (AID 449749); type: functional
T1 sequence (P9WMR3 whole entry): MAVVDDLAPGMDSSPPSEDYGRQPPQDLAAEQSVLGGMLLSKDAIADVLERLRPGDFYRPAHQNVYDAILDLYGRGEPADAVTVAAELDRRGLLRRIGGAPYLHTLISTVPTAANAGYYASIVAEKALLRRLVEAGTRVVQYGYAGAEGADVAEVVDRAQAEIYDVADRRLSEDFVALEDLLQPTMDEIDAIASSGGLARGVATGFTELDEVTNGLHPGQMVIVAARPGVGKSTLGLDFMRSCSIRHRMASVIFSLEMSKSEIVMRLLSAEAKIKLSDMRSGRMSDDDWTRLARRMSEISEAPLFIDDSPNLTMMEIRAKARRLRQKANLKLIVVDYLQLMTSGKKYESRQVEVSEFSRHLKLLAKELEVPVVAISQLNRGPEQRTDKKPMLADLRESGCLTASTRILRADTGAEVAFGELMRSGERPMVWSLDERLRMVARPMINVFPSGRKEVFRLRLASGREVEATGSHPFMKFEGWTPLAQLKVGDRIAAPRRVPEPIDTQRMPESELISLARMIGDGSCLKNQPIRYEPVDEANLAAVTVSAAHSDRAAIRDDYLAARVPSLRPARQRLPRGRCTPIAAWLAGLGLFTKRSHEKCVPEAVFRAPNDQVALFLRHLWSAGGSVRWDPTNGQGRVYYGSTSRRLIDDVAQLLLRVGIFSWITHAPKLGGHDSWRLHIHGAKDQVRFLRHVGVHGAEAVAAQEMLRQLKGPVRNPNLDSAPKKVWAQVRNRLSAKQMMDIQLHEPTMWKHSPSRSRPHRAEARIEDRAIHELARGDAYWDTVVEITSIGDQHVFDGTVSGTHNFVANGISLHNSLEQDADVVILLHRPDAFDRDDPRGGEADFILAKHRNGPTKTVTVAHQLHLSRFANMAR

[3] = target: T2, Apoptotic protease-activating factor 1 (Homo sapiens, UniProt O14727); type: functional
T2 sequence (O14727 whole entry): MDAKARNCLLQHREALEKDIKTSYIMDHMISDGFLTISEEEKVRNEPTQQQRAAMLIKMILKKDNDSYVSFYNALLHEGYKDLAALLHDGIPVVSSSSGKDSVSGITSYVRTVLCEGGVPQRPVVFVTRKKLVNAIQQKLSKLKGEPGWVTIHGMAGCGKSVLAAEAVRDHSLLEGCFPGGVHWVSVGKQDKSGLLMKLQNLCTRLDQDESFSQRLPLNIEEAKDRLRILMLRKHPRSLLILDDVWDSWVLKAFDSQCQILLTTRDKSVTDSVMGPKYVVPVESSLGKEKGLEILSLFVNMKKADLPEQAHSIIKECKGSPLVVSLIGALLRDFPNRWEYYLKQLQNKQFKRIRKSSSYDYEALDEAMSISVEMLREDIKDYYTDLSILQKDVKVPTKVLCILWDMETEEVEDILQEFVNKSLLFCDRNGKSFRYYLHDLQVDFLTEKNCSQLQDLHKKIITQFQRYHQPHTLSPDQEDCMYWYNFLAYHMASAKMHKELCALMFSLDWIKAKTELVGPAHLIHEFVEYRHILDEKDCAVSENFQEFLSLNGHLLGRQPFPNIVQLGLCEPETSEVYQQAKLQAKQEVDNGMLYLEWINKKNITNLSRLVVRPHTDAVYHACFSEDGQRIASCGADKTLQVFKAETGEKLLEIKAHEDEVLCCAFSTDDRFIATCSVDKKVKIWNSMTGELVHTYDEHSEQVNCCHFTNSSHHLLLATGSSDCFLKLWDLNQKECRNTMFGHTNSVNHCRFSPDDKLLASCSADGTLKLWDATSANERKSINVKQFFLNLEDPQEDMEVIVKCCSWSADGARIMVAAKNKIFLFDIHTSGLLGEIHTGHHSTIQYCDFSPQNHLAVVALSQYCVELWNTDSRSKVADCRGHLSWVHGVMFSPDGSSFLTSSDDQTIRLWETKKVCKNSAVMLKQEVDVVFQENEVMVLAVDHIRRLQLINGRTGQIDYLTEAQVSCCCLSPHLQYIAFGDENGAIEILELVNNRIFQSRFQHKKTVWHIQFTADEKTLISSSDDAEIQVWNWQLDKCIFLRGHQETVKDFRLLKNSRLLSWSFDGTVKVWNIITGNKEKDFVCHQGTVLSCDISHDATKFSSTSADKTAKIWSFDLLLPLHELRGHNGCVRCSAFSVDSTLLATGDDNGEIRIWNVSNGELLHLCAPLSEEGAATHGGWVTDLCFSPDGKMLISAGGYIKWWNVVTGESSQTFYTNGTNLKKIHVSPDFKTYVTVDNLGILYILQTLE

Protein RecA = target: T3, Protein RecA (Mycobacterium tuberculosis, UniProt P9WHJ3); assay: Fluorescence Cell-Free Homogeneous Dose Retest to Identify Inhibitors of RecA-Intein Splicing Activity. [Related pubchem assays (depositor defined):AID2097, AID2223, AID489010, AID492950]; type: functional
T3 sequence (P9WHJ3 whole entry): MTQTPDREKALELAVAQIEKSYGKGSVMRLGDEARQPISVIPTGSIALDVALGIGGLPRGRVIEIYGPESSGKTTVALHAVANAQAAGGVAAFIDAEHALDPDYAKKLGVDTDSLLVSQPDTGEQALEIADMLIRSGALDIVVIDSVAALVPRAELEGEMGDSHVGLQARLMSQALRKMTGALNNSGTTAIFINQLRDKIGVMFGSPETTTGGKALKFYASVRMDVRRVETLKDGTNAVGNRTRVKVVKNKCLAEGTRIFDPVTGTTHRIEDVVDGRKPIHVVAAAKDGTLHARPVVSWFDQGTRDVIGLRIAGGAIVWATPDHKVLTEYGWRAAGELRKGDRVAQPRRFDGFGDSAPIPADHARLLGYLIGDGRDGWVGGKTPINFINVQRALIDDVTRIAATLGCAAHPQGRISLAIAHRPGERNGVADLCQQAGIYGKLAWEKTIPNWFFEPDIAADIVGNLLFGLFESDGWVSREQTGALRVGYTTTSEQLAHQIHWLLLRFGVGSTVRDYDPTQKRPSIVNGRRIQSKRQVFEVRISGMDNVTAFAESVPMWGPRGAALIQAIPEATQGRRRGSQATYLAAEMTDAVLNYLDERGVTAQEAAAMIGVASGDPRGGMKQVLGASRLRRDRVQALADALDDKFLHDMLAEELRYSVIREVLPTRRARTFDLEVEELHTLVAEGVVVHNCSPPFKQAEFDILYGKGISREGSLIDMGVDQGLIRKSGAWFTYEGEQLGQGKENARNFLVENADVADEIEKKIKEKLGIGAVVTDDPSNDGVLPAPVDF

Genome polyprotein = Genome polyprotein (dengue virus type 2, UniProt P29990); assay: Dengue-2 NS5 methyltransferase inhibitors, primary screen, biochemical, confirmation dose response (AID 588689); type: functional
Genome polyprotein, sequence (P29990 2492-3391 limits assumed): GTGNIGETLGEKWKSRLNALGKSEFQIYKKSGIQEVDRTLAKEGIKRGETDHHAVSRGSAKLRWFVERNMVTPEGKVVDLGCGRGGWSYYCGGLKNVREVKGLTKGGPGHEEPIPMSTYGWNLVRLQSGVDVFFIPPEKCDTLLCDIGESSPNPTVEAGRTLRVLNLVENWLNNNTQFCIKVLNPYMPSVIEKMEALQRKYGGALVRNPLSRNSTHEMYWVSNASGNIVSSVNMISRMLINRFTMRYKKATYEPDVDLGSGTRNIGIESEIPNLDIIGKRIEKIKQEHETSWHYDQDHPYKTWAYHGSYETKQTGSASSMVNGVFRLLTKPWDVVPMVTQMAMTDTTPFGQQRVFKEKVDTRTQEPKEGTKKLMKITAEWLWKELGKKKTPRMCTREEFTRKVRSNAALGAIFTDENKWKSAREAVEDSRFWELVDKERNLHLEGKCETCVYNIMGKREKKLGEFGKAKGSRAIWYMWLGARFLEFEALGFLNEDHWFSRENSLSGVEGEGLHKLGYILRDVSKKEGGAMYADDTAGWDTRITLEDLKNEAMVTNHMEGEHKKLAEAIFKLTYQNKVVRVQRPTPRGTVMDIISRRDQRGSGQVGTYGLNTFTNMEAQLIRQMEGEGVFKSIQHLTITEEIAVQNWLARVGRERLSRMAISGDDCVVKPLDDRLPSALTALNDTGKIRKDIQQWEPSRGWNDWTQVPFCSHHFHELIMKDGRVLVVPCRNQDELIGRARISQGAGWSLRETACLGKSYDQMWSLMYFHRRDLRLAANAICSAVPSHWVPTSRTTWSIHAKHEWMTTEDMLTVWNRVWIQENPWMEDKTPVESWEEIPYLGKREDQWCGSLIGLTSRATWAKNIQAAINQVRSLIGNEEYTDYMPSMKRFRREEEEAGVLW

[4] = target: Histone-lysine N-methyltransferase NSD2 (Homo sapiens, UniProt O96028); type: biochemical
Histone-lysine N-methyltransferase NSD2, sequence (O96028 whole entry): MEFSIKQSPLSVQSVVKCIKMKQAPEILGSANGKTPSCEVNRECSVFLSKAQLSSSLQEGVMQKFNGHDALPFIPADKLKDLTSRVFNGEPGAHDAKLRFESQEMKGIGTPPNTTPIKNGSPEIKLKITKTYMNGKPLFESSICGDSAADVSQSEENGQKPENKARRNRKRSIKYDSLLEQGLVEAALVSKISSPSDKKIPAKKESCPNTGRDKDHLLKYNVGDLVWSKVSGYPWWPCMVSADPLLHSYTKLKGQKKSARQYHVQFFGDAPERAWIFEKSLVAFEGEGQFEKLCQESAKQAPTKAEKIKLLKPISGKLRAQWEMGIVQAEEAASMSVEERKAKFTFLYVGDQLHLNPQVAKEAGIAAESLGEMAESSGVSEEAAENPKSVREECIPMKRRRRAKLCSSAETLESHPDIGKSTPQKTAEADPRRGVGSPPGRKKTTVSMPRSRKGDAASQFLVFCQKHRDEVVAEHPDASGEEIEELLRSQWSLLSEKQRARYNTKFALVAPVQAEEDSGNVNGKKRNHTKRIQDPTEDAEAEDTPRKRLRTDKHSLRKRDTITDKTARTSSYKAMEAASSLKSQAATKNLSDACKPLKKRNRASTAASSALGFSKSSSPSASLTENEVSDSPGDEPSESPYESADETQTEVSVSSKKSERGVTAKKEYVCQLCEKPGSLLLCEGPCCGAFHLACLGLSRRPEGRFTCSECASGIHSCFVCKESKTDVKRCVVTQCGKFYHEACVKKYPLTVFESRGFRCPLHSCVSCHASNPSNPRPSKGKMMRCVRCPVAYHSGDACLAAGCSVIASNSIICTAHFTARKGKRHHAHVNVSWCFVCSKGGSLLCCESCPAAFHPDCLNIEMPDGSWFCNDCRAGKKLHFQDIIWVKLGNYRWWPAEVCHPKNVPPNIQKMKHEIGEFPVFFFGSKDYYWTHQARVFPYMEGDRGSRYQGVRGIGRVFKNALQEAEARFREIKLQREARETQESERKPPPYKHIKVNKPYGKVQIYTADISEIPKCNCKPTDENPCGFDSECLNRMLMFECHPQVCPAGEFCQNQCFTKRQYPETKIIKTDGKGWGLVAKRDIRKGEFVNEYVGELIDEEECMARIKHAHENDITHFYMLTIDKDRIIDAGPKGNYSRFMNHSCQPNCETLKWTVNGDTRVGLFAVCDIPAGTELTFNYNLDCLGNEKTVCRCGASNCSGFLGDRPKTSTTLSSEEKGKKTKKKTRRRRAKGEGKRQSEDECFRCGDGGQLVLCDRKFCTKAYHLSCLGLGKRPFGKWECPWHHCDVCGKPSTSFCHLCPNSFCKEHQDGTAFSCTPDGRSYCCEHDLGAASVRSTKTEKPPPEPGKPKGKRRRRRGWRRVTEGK

[5] = inhibitors of intracellular T. cruzi replication, confirmation, NIH3T3 host cells, beta-gal luminescence (AID 2044); type: functional, cell-based;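 further: intracellular parasites grown in NIH/3T3 mouse fibroblasts as host cells; luminescent beta-galactosidase reporter signal from transgenic T. cruzi replicating inside host cells; inhibitors lower the luminescence signal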
[6] = cytotoxicity toward NIH3T3 fibroblasts, dose response, counter-screen, cell-based, ATP luminescence, mouse fibroblasts (AID 2010); type: functional;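 further: cells exposed to compound for about 90 hours before reading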
CHO-K1 = assay: (§1) Counterscreen for antagonists of the orexin 1 receptor (OX1R; HCRTR1): Homogeneous time resolved fluorescence (HTRF)-based cell-based dose response assay to identify antagonists of the parental CHO-K1 cell line. [Related pubchem assays (depositor defined):AID434989, AID435008, AID463079, AID485270, AID492963, AID492964, AID492965, AID493232, AID504699, AID504701]; type: functional; settings: Cricetulus griseus
[7] = target: ATP-dependent translocase ABCB1 (Homo sapiens, UniProt P08183); assay: ABCB1 efflux pump inhibitor potency, dose response, Jurkat-DNR cells, JC-1, flow cytometry (AID 1689); type: functional
ATP-dependent translocase ABCB1, sequence (P08183 whole entry): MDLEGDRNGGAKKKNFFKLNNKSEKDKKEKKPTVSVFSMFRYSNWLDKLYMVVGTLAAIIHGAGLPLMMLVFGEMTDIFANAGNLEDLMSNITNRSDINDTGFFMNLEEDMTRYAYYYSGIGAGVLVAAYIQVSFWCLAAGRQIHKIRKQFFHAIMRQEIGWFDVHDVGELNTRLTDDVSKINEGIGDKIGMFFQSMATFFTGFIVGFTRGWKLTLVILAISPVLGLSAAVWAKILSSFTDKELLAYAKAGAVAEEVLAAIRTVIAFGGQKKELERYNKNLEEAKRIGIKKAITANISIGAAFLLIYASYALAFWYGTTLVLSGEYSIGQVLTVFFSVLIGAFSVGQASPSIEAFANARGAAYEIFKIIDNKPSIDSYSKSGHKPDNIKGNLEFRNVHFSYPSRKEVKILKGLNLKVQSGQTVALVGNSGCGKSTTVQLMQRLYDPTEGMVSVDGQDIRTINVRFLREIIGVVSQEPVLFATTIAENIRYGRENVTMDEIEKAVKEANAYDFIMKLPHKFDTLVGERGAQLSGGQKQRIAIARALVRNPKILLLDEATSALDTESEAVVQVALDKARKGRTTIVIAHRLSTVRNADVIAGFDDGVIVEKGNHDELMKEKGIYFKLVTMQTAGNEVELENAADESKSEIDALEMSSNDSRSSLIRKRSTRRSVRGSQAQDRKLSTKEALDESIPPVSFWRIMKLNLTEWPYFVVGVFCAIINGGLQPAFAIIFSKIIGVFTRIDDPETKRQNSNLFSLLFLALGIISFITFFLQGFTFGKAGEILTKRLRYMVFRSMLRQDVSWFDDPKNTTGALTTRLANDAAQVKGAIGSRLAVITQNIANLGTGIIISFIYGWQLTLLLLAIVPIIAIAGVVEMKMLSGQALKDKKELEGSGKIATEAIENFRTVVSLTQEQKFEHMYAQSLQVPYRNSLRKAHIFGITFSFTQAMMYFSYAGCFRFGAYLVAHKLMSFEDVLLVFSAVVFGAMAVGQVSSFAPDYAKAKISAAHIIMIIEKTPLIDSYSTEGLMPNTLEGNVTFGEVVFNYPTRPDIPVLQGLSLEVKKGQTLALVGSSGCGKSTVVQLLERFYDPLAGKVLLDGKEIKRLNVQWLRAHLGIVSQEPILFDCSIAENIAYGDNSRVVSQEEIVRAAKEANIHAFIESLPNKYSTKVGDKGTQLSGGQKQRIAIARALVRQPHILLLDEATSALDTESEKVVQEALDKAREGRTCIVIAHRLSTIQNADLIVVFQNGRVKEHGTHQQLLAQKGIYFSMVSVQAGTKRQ

[8] = as §1, with “Fluorescence-based” for “Homogeneous time resolved fluorescence (HTRF)-based”, “cell-based high throughput” for “cell-based”, “CHO” for “CHO-K1”; type: functional
[9] = target: T4, Orexin/Hypocretin receptor type 1 (Homo sapiens, UniProt O43613); assay: Homogeneous Time Resolved Fluorescence (HTRF)-based cell-based high throughput dose response assay for antagonists of the orexin 1 receptor (OX1R; HCRTR1). [Related pubchem assays (depositor defined):AID434989, AID435008, AID463079, AID485270, AID492963, AID492964, AID492965, AID493232, AID504717, AID504718]; type: functional
T4 sequence (O43613 whole entry): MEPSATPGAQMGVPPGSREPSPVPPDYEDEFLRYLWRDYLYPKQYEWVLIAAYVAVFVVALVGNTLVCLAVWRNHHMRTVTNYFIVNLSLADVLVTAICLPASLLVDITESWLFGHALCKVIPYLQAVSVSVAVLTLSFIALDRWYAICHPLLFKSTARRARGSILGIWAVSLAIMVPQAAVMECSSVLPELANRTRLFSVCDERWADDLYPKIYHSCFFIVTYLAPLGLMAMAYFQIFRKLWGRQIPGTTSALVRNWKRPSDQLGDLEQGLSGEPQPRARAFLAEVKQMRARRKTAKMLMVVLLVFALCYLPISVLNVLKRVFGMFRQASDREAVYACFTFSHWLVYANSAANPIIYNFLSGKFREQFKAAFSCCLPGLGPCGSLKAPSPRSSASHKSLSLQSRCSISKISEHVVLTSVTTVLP

[10] = target: T4, Orexin/Hypocretin receptor type 1; assay: Fluorescence-based cell-based high throughput dose response assay for antagonists of the orexin 1 receptor (OX1R; HCRTR1). [Related pubchem assays (depositor defined):AID434989, AID435008, AID463079, AID485270, AID492963, AID492964, AID492965, AID493232, AID504717, AID504718]; type: functional
Orexin receptor type 2 [11] = target: T5, Orexin receptor type 2 (Homo sapiens, UniProt O43614); assay: Counterscreen assay for antagonists of the orexin 1 receptor (OX1R; HCRTR1): Fluorescence-based cell-based dose response assay for antagonists of the orexin 2 receptor (OX2R; HCRTR2), run by assay provider.; type: functional
T5 sequence (O43614 whole entry): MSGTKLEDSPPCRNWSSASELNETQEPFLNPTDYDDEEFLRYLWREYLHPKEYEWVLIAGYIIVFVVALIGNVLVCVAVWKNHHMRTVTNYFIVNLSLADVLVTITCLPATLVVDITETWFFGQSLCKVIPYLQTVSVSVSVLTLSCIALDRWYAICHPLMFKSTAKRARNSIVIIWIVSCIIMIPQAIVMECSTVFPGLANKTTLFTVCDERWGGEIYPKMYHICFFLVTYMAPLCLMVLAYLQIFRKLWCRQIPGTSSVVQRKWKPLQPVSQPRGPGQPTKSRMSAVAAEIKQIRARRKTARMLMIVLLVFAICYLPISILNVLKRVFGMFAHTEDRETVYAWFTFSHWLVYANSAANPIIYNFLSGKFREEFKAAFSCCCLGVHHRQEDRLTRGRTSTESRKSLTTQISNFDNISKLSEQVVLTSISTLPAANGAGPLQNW

Orexin receptor type 2 [12] = target: T5, Orexin receptor type 2; assay: Counterscreen assay for antagonists of the orexin 1 receptor (OX1R; HCRTR1): Homogeneous Time Resolved Fluorescence (HTRF)-based cell-based dose response assay for antagonists of the orexin 2 receptor (OX2R; HCRTR2), run by assay provider.; type: functional
[13] = target: Broad substrate specificity ATP-binding cassette transporter ABCG2 (Homo sapiens, UniProt Q9UNQ0); assay: ABCG2 efflux pump inhibitors, dose response, Ig-MXP3 cells, flow cytometry (AID 1690); type: functional
Broad substrate specificity ATP-binding cassette transporter ABCG2, sequence (Q9UNQ0 whole entry, the tested form may be a part): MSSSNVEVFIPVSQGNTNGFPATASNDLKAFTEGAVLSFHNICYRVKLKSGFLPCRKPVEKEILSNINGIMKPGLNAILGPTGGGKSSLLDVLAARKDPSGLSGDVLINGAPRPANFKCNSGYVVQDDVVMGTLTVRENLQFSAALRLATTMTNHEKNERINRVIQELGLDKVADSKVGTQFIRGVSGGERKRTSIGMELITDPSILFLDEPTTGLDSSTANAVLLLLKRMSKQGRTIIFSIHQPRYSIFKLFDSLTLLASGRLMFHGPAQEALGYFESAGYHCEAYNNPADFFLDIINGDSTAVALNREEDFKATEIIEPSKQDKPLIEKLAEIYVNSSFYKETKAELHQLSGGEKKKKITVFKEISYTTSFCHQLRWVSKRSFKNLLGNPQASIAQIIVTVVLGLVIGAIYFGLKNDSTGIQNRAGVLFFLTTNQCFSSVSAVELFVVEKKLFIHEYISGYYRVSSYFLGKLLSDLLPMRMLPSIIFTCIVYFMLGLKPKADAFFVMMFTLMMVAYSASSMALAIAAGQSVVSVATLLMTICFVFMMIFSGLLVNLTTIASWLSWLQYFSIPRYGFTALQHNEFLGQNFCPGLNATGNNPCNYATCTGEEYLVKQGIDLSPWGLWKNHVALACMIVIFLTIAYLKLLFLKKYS

[14] = target: Disintegrin and metalloproteinase domain-containing protein 17 (Homo sapiens, UniProt P78536); assay: exosite inhibitors of ADAM17, dose response, biochemical (AID 743260)
Disintegrin and metalloproteinase domain-containing protein 17, sequence (P78536 whole entry, the tested form may be a part): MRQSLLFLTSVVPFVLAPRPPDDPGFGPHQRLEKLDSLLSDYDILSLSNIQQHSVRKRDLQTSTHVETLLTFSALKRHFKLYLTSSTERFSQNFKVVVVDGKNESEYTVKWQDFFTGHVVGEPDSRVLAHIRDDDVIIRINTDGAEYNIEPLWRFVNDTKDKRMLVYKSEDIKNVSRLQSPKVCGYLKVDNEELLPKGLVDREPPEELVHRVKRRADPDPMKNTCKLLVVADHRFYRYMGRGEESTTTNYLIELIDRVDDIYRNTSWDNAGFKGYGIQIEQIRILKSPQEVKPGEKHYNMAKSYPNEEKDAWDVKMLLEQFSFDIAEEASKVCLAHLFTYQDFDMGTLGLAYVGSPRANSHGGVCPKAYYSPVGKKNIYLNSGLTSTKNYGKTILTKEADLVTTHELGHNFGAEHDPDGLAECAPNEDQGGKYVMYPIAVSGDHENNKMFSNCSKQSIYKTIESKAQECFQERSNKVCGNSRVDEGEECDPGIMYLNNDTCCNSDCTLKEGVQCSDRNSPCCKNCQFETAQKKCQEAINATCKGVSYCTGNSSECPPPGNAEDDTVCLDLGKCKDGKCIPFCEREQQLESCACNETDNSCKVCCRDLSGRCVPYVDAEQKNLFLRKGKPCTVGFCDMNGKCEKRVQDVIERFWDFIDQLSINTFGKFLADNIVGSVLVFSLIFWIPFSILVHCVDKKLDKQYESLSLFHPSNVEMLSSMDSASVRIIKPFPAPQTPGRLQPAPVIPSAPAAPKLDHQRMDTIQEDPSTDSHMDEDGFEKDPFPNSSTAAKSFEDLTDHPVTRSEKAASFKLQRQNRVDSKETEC

Galanin receptor type 3 = Galanin receptor type 3 (Homo sapiens, UniProt O60755); assay: Fluorescence-based cell-based primary high throughput dose response assay to identify antagonists of the Galanin Receptor 3 (GalR3).; type: functional
cells [15] = type: functional, cell-based; settings: HEK-CNG
[16] = ADAM10 protease inhibitors, dose response, selectivity assay for ADAM17 exosite inhibitor project, biochemical, FRET peptide substrate, recombinant human ADAM10 (AID 743259);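 further: ADAM10 enzyme cleaving a FRET peptide substrate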

In the case of `Cc1ccc(Cc2c(-c3ccco3)nc3c(C)cc(Br)cn23)cc1`, the IC50 (Major prion protein) is reported as 9.95 µM (active) and the IC50 (cells [1]) is reported as 78.6 µM (inactive).

For `CC(C)(C)c1ccc(S(=O)(=O)/N=C2\C=C(NS(=O)(=O)c3ccccc3)C(=O)c3ccccc32)cc1`, the AC50 [2] was 4.68 µM (active), the IC50 [3] was 15 µM (active) and the EC50 (Protein RecA) was 4.85 µM (active). The IC50 (Genome polyprotein) was 25.5 µM (active) and the AC50 [4] was 3.73 µM (active).

For `CCN(CC)P(=O)(Nc1cccc(C(F)(F)F)c1)c1ccc(N(C)C)cc1NC(=O)c1ccco1` (stereo not drawn), the EC50 [5] was 1.3 µM (active), the EC50 [6] was > 30 µM (not active) and the IC50 (CHO-K1) was > 66.2 µM (inactive). The EC50 [7] was 0.998 µM (active), the IC50 [8] was > 49.8 µM (inactive) and the IC50 [9] was 0.184 µM (active). For the same compound, the IC50 [10] was 2.29 µM (active), the IC50 (Orexin receptor type 2 [11]) was 5 µM (active) and the IC50 (Orexin receptor type 2 [12]) was > 50 µM (inactive). For the same compound, the EC50 [13] was 2.29 µM (active).

For `Cc1ccc(-n2c(C3CC3c3ccc(Cl)cc3)n[nH]c2=S)cc1` (stereo not drawn), the IC50 [14] was > 69.5 µM (inactive).

For `Cc1cc(NC(=O)C(C)Sc2nc(-c3cccs3)nc3ccccc23)no1` (stereo not drawn), the IC50 (Major prion protein) was 1.7 µM (active) and the IC50 (cells [1]) was > 138 µM (inactive).

With `COc1ccc(C(=O)CSc2nnc(Cn3cnc4ccccc43)o2)cc1` the IC50 (Galanin receptor type 3) was 0.891 µM (active) and the EC50 (cells [15]) was > 29.9 µM (inactive).

In the case of `Cc1ccc(-n2c(S)nnc2C2CC2c2ccc(Cl)cc2)cc1` (stereo not drawn), the IC50 [16] is reported as > 69.5 µM (inactive).
